Calls of active or inactive are those of the source.
Tests used:
Bcl-2-related protein A1 [1] = target: T1, Bcl-2-related protein A1 (Mus musculus, UniProt Q07440); experiment: small-molecule antagonists of Bfl-1/BH3 interaction – biochemical, TR-FRET, mouse Bfl-1, confirmation (AID 621);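 further: TR-FRET binding of GST-Bfl-1 to FITC-labelled Bid peptide via terbium antibody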
T1 sequence (Q07440 whole entry): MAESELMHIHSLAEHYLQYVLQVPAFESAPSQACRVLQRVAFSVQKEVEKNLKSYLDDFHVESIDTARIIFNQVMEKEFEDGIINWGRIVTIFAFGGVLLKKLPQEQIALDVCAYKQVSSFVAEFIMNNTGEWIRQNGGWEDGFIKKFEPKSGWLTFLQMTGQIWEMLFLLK

Bcl-2-related protein A1 [2] = target: T1, Bcl-2-related protein A1; experiment: Bfl-1 binding inhibitors, SAR follow-up, biochemical, fluorescence polarization (AID 1070)
[3] = target: Glyceraldehyde-3-phosphate dehydrogenase (Homo sapiens, UniProt P04406)
Sequence of Glyceraldehyde-3-phosphate dehydrogenase (P04406 whole entry): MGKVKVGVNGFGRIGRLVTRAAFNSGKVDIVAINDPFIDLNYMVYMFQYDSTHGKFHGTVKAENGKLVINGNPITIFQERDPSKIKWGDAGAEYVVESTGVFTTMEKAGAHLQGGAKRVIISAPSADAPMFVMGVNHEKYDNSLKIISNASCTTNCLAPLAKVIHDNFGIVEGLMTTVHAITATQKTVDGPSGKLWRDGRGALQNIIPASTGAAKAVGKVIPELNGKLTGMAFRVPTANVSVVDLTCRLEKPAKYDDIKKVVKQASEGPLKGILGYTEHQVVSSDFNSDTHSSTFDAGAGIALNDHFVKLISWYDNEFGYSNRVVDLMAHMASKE

[4] = target: Protein-tyrosine kinase 2-beta (Homo sapiens, UniProt Q14289);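 further: potency of inhibitors of PYK2 kinase phosphorylation of poly-GT substrate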
NADPH oxidase 1 = target: T2, NADPH oxidase 1 (Homo sapiens, UniProt Q9Y5S8); experiment: Late-stage luminescence-based cell-based dose response assay to identify inhibitors of NADPH oxidase 1 (NOX1): Synthesized analogs.; assay type: functional
T2 sequence (Q9Y5S8 whole entry): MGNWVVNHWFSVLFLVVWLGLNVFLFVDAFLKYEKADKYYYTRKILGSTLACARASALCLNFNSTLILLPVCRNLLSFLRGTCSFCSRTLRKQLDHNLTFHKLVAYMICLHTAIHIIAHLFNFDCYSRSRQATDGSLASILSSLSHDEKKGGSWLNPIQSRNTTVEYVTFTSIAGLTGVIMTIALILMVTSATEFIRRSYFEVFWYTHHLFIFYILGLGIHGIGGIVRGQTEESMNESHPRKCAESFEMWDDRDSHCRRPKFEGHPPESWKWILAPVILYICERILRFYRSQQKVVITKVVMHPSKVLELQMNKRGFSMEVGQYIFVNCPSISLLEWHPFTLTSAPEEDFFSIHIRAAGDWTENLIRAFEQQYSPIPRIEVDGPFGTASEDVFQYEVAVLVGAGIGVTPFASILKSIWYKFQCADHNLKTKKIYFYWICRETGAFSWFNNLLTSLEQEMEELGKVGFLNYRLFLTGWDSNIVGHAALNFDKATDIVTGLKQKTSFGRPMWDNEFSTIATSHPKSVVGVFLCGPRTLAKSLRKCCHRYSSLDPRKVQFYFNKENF

[5] = target: Potassium voltage-gated channel subfamily KQT member 2 (Rattus norvegicus, UniProt O88943, W236L); experiment: potentiation of rat KCNQ2 current – cell-based, automated electrophysiology, mechanism study for KCNQ2 potentiator project, dose response (AID 2603); assay type: functional
[6] = Luminescence Cell-Based Dose Confirmation to Identify Activators of 5'UTR Stem-Loop Driven Alpha-Synuclein mRNA Translation in H4 Neuroglioblastoma Cells. [Related pubchem assays: 1829 (Project Summary), 1814 (Primary HTS)]; assay type: functional
[7] = Luminescence Cell-Based Dose Response to Identify Activators of 5'UTR Stem-Loop Driven Prion Protein mRNA Translation in H4-C Neuroglioblastoma Cells. [Related pubchem assays: 1829 (Project Summary), 1814 (Primary HTS)]; assay type: functional
H4 = experiment: Luminescence Cell-Based Dose Response HTS to Identify Activators of 5'UTR Stem-Loop Driven Prion Protein mRNA Translation in H4 Neuroglioblastoma Cells. [Related pubchem assays: 1829 (Project Summary), 1814 (Primary HTS)]; assay type: functional; conditions: Homo sapiens
[8] = Luminescence Cell-Based Dose Response HTS to Identify Activators of Luciferase Translation or Activity in H4 […] Cells. [Related pubchem assays: 1829 (Project Summary), 1814 (Primary HTS)]; assay type: functional
[9] = Luminescence Cell-Based Dose Response to Identify Activators of Luciferase Translation or Activity in H4-C Neuroglioblastoma Cells. [Related pubchem assays: 1829 (Project Summary), 1814 (Primary HTS)]; assay type: functional
[10] = target: T3, E3 ubiquitin-protein ligase XIAP (Homo sapiens, UniProt P98170); experiment: Counter Screen using XIAP-Bir3 for Chemical Antagonists of Bir1/2 domains of IAP-family anti-apoptotic proteins. [Related pubchem assays (depositor defined):AID1018, AID1449, AID1514, AID1638, AID1749, AID1750, AID488957, AID488963]
T3 sequence (P98170 whole entry): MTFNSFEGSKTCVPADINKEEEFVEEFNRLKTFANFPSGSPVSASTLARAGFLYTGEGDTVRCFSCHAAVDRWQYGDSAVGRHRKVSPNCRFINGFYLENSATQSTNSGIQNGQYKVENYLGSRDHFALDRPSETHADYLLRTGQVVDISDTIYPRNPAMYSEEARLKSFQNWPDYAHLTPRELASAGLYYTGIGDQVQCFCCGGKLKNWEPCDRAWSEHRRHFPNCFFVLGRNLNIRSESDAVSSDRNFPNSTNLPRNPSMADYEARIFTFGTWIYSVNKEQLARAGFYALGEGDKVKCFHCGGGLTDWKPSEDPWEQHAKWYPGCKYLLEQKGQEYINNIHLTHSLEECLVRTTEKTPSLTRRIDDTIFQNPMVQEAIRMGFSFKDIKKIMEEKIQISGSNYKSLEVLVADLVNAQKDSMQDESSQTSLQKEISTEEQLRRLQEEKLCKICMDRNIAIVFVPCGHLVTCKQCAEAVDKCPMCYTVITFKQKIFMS

[11] = target: T3, E3 ubiquitin-protein ligase XIAP; experiment: small molecules displacing peptide from XIAP – biochemical, IAP family, fluorescence polarization (AID 1018); assay type: functional
Caspase-6 = target: T4, Caspase-6 (Homo sapiens, UniProt P55212); experiment: inhibition of CASP6 peptide cleavage – biochemical, VEID-R110 fluorescence, cherry-pick, dose response (AID 720632)
T4 sequence (P55212 whole entry): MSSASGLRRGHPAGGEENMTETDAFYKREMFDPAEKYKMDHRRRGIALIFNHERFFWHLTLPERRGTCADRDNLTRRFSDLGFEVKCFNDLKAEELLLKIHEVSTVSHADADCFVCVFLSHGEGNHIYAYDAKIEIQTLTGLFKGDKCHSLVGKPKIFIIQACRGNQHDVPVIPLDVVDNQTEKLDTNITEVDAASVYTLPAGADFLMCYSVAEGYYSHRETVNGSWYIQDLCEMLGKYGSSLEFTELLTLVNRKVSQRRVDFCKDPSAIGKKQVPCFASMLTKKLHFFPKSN

[12] = target: T5, Induced myeloid leukemia cell differentiation protein Mcl-1 (Homo sapiens, UniProt Q07820); experiment: blockers of MCL1 binding to BIM peptide – biochemical, fluorescence polarization, BIM-BH3 peptide, 1536-well, dose response (AID 2217)
T5 sequence (Q07820 whole entry, the tested form may be a part): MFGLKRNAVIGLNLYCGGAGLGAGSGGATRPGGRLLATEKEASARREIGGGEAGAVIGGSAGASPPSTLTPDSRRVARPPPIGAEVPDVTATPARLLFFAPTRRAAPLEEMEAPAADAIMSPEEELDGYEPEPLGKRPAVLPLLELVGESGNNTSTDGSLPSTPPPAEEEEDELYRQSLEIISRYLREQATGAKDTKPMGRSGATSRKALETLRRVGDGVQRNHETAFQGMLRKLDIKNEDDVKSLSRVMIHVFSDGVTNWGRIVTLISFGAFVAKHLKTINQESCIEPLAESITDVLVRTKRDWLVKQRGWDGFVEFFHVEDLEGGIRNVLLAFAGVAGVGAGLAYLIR

[13] = target: T6, Carboxy-terminal domain RNA polymerase II polypeptide A small phosphatase 1 (Homo sapiens, UniProt Q9GZU7); experiment: CTDSP1 inhibitors, concentration-response, biochemical, absorbance readout, ultra-high-throughput screen actives (AID 540297); assay type: functional
T6 sequence (Q9GZU7 whole entry): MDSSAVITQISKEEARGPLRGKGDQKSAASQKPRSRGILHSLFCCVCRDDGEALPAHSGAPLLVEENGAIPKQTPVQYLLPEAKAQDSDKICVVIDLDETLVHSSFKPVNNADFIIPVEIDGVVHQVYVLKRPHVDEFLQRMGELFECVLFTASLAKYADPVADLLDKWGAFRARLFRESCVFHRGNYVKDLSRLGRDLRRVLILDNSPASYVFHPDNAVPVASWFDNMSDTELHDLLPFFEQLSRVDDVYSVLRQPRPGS

Caspase-7 = Caspase-7 (Homo sapiens, UniProt P55210); experiment: caspase-7 enzyme inhibition, selectivity check – biochemical, DEVD-R110 fluorescence, cherry-pick, selectivity assay for caspase-6 inhibitor project, dose response (AID 743295); assay type: functional
Caspase-8 = Caspase-8 (Homo sapiens, UniProt Q14790); experiment: inhibitors of purified CASP8 protease – biochemical, Z-IETD-R110 fluorescence, cherry-picked samples, selectivity assay for caspase-6 inhibitor project, dose response (AID 743294)
Bcl-2-like protein 1 = Bcl-2-like protein 1 (Homo sapiens, UniProt Q07817); experiment: blockers of BCLXL peptide binding – biochemical, fluorescence polarization, 1536-well, selectivity assay for MCL1 inhibitor project, dose response (AID 2218)
[14] = target: T7, Small ubiquitin-related modifier 1 (Homo sapiens, UniProt P63165); experiment: SUMO1 protein-protein binding blockers, potency – biochemical, FRET, dose response (AID 624383); assay type: functional; conditions: read-out: IC50_Mean
T7 sequence (P63165 whole entry): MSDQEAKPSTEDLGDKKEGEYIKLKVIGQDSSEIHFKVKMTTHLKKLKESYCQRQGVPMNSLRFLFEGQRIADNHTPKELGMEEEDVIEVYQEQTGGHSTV

[15] = target: Photoreceptor-specific nuclear receptor (Homo sapiens, UniProt Q9Y5X4); experiment: ligands suppressing NR2E3 nuclear receptor activity – biochemical, TR-FRET, dose response (AID 463256); assay type: functional
[16] = target: Peroxisome proliferator-activated receptor gamma/Nuclear receptor corepressor 2 (Homo sapiens, UniProt P37231+Q9Y618); experiment: Counterscreen for NR2E3 inverse agonists: TR-FRET-based biochemical high throughput dose response assay to identify inverse agonists of the interaction between peroxisome proliferator-activated receptor gamma (PPARg) and nuclear receptor co-repressor 2 (NCOR2).; assay type: functional
Sequence of Peroxisome proliferator-activated receptor gamma/Nuclear receptor corepressor 2 (P37231 whole entry): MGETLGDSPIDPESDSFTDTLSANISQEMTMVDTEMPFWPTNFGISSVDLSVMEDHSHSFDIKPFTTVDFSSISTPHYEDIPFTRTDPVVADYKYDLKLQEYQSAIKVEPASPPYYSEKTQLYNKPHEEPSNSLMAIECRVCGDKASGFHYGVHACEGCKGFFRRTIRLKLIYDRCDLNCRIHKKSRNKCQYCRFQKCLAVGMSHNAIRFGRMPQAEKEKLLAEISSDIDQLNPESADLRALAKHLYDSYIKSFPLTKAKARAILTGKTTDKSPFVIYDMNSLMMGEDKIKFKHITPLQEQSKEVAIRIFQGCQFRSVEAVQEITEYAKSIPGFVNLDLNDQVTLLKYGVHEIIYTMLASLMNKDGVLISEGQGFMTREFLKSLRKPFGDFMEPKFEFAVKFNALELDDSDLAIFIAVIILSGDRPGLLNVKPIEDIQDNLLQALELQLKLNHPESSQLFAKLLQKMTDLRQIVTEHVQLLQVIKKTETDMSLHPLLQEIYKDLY
Sequence of Peroxisome proliferator-activated receptor gamma/Nuclear receptor corepressor 2 (Q9Y618 whole entry): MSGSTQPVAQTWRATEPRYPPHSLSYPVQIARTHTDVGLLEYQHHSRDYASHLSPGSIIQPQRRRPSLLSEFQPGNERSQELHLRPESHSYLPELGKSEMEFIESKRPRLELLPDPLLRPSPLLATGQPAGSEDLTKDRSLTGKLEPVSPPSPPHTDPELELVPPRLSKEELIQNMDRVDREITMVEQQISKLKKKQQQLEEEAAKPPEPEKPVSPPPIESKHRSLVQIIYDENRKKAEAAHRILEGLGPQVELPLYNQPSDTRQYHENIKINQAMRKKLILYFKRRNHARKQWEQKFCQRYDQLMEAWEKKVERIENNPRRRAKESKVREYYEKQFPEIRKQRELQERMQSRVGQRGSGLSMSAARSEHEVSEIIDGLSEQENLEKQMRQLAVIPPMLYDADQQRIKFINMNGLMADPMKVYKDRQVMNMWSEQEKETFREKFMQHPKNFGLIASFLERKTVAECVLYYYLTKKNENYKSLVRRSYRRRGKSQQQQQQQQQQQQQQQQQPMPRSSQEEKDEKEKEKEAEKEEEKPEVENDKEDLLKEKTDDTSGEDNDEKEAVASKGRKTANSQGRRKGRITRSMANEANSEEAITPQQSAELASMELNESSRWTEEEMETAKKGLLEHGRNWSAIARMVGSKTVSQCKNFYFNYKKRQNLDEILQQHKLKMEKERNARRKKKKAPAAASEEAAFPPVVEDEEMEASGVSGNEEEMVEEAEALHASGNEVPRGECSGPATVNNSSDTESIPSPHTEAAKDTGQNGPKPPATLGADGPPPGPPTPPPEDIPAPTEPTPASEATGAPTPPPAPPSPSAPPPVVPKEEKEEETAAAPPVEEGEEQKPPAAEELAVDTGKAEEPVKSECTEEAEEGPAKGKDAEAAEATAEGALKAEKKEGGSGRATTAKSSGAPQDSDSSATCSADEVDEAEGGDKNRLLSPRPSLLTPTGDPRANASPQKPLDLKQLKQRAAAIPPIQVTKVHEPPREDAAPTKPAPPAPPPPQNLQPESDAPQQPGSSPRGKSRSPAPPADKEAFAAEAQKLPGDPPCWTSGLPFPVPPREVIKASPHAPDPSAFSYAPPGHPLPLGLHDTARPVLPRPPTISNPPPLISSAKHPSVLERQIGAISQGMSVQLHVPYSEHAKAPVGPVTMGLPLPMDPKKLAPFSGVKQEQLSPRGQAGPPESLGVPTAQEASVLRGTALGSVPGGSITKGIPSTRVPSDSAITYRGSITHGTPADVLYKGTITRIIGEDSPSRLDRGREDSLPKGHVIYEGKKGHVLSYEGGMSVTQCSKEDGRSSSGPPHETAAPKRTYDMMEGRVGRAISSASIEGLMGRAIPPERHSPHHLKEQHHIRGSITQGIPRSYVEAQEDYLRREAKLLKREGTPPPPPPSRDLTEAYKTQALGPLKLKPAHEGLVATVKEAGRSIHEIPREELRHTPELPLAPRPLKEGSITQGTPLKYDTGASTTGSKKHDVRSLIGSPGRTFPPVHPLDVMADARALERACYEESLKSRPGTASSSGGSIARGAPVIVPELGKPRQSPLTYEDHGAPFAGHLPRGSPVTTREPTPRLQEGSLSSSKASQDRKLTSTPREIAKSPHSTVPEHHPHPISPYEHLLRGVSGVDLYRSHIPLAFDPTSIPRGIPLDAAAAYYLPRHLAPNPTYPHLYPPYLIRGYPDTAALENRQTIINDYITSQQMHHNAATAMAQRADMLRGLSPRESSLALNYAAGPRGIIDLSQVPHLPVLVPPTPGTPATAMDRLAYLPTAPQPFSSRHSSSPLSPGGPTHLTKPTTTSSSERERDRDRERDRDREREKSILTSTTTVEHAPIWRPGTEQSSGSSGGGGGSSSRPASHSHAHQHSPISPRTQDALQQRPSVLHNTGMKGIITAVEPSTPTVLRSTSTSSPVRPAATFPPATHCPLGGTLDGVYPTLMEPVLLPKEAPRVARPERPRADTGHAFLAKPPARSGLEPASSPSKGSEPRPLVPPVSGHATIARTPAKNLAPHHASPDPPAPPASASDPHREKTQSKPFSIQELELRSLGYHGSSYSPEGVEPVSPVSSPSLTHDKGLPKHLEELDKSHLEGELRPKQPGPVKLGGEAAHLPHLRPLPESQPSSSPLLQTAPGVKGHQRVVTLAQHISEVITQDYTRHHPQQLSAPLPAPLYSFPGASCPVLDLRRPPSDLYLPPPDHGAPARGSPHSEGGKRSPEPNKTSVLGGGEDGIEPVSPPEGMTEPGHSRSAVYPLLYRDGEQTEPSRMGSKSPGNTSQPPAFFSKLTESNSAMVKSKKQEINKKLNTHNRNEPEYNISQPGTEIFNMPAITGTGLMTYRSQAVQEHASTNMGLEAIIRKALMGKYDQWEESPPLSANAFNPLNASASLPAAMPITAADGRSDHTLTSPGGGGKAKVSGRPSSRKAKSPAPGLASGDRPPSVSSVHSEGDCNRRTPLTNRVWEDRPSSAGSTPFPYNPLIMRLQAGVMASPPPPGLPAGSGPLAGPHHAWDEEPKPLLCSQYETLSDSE

[17] = target: T7, Small ubiquitin-related modifier 1; experiment: SUMO1 protein interaction blockers, potency – biochemical, fluorescence polarization, uHTS hits, dose response (AID 624382); assay type: functional; conditions: read-out: IC50_Mean
cells [18] = experiment: cells
cells [19] = assay type: functional
[20] = Trypanosoma cruzi growth suppression in host cells – NIH3T3 host cells, beta-gal luminescence, confirmation (AID 2044); assay type: functional, cell-based;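 further: intracellular parasites grown in NIH/3T3 mouse fibroblasts as host cells; luminescent beta-galactosidase reporter signal from transgenic T. cruzi replicating inside host cells; inhibitors lower the luminescence signal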
[21] = NIH3T3 cell viability loss – ATP luminescence, mouse fibroblasts, counter-screen, dose response (AID 2010); assay type: functional, cell-based;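 further: cells exposed to compound for about 90 hours before reading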
[22] = Luminescent dose response cell-based high throughput screening assay for inhibitors of the Janus kinase 2 mutant JAK2V617F. [Related pubchem assays: 1446 (Primary screen.), 1521 (Confirmation assay.), 1486 (Counter screen.)]; assay type: functional
[23] = viability loss of HPDE-C7K cells – cell-based, fluorescence, HTS, primary screen (AID 431); assay type: functional; conditions: Homo sapiens
[24] = HPDE-C7 pancreatic duct cell viability loss – fluorescence, HTS (AID 430); assay type: functional, cell-based; conditions: Homo sapiens
[25] = target: Sphingosine 1-phosphate receptor 2 (Homo sapiens, UniProt O95136); experiment: Dose Response Cell Based Assay for Agonists of the S1P2 Receptor of Purchased Analogues. [Related pubchem assays: 729, 843, 854, 736 ]; assay type: functional
Sequence of Sphingosine 1-phosphate receptor 2 (O95136 whole entry): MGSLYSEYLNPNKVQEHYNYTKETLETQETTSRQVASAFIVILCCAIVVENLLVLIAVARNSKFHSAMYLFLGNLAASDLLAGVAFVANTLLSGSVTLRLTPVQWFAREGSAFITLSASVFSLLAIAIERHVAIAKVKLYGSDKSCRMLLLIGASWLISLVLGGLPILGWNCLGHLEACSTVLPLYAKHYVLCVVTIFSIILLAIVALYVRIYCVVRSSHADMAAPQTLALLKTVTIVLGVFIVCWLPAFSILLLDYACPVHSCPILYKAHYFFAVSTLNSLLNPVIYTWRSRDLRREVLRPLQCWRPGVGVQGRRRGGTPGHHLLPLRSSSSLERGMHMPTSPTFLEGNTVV

Oxytocin receptor = Oxytocin receptor (Homo sapiens, UniProt P30559); experiment: Fluorescence-based cell-based high throughput dose response assay for potentiators of Oxytocin Receptor (OXTR). [Related pubchem assays: 434985 (Confirmation screen (OXTR potentiators in triplicate)), 2481 (Summary (OXTR potentiators)), 2445 (Primary screen (OXTR potentiators in singlicate))]; assay type: functional
Sequence of Oxytocin receptor (P30559 whole entry): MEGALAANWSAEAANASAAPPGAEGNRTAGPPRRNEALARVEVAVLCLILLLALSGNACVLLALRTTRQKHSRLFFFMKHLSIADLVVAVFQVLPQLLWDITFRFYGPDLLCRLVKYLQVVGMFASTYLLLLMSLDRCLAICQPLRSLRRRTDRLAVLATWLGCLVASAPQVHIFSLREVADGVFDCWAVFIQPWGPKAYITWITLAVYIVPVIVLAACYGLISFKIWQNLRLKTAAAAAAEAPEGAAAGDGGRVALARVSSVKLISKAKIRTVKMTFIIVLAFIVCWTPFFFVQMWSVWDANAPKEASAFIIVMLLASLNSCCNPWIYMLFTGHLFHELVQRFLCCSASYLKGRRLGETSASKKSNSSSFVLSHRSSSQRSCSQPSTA

[26] = target: T5, Induced myeloid leukemia cell differentiation protein Mcl-1; assay type: functional
[27] = Luminescence Cell-Based Dose Retest to Confirm Inhibitors of Cancer Stem Cells. [Related pubchem assays (depositor defined):AID2717, AID2721]; assay type: functional; conditions: Homo sapiens
Vero [28] = experiment: inhibition of WNV-induced cytopathic effect – cell-based, CPE readout (AID 1621); assay type: functional; conditions: Chlorocebus sabaeus
Vero [29] = experiment: mammalian cell viability reduction – secondary assay, cytotoxicity control for West Nile virus antiviral project, dose response (AID 1650); assay type: functional; conditions: Chlorocebus sabaeus

CN1CCN(C2=C(Cl)C(=O)N(c3cc(Cl)cc(Cl)c3)C2=O)CC1
IC50 (Bcl-2-related protein A1 [1]): 1.66 µM (active) | IC50 (Bcl-2-related protein A1 [2]): 2.44 µM (active) | IC50 [3]: > 100 µM (not active)

O=C1NCCc2c1[nH]c1c(Cl)ccc(Cl)c21
IC50 [4]: 10.2 µM (not active)

CC(=NNC(=O)c1ccc(O)cc1)c1ccc2c(c1)Nc1ccccc1S2
IC50 (NADPH oxidase 1): 0.382 µM (active)

Cc1ccc(NC(=O)C2CC2c2ccccc2)c([N+](=O)[O-])c1 (stereo unspecified)
EC50 [5]: 11.4 µM (active)

CS(=O)(=O)c1nc(S(=O)(=O)c2ccc(Cl)cc2)c(N2CCC3(CC2)OCCO3)s1
EC50 [6]: 0.71 µM (active) | EC50 [7]: > 12 µM (not active) | EC50 (H4): > 120 µM (not active) | EC50 [8]: < 0.1 µM (active) | EC50 [9]: > 12 µM (not active)

COc1ccc(NC(=O)/C(=C/c2cccnc2)NC(=O)c2cccs2)cc1
IC50 [10]: > 100 µM (inactive) | IC50 [11]: > 100 µM (not active)

Cc1cccc(NC(=O)CNC(=O)c2cccc(-n3cccc3)c2)c1C
AC50 (Caspase-6): 1.55 µM (active) | IC50 [12]: 8.77 µM (active) | IC50 [13]: 3.97 µM (active) | AC50 (Caspase-7): > 70 µM (inactive) | AC50 (Caspase-8): > 70 µM (inactive) | IC50 (Bcl-2-like protein 1): > 109 µM (not active)

COc1cccc(-c2csc3nnc(SCC(=O)c4ccc(NC(C)=O)cc4)n23)c1
IC50 [14]: 10.6 µM (active) | IC50 [15]: 4.9 µM (active) | IC50 [16]: 6.73 µM (active) | IC50 [17]: > 66.6 µM (inactive)

CN(C)CCNc1c2c(c(C#N)c3nc4ccccc4n13)CCCC2
EC50 (cells [18]): 0.11 µM (active) | IC50 (cells [19]): 20.9 µM (active) | EC50 [20]: < 0.1 µM (active) | EC50 [21]: > 60 µM (not active)

c1ccc2c(c1)CSc1sccc1C2=C1CCNCC1
IC50 [22]: 1.71 µM (active)

O=c1c2c3c(sc2n2cnnc2n1Cc1ccccc1)CN(Cc1ccccc1)CC3
EC50 [23]: 11.6 µM (active) | EC50 [24]: 12.9 µM (active)

COCCNC(=O)CN(C)CC(=O)c1cc(C)n(Cc2ccccc2)c1C
EC50 [25]: > 30 µM (not active)

Sc1nnc(-c2ccncc2)n1/N=C/c1cn(-c2ccccc2)nc1-c1ccccc1
EC50 (Oxytocin receptor): > 29.9 µM (not active)

CN1CCN(CCCN2c3ccccc3Sc3ccc(Cl)cc32)CC1 [PROCHLORPERAZINE]
IC50 [26]: 3.77 µM (active) | AC50 [27]: 4.93 µM (active) | IC50 (Vero [28]): 19.1 µM (active) | CC50 (Vero [29]): 29.4 µM (active)

Source: ChEMBL document CHEMBL1201862, “PubChem BioAssay data set” (2004)
